We go through 37 compounds from US20230382911A1 (Hoffmann-La Roche Inc., priority 2021, published 2023).

The target in the experiment is Recombinant human Mat2a (Homo sapiens (Human), UniProt P31153). The experiment can be described thus: Determination of Mat2A activity: 384 well format absorbance-based Mat2A inhibition assay. It is filed as biochemical. Particulars: 12.5 nM Mat2A, 100 μM ATP and Methionine, 2% DMSO, 120 minutes at RT, Biomol Green, absorbance at 635 nm. On the procedure: Determination of Mat2A Activity
Recombinant human Mat2a, sequence (P31153 whole entry): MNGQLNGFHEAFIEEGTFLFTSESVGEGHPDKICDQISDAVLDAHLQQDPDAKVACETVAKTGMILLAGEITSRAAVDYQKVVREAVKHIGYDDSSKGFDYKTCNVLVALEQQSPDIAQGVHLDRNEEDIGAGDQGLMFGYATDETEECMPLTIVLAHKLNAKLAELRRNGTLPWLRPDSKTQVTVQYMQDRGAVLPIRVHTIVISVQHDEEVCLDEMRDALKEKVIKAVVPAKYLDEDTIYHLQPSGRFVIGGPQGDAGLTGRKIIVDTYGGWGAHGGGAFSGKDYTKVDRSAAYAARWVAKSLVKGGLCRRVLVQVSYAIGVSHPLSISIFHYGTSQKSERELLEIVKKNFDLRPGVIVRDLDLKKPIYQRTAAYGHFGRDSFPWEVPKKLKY
Measurement of Mat2A inhibition is performed in 384 well format absorbance-based assay.
Recombinant human Mat2a (12.5 nM) and serial diluted compounds in DMSO (range of concentrations from 10 μM to […]) or controls (DMSO) are incubated for 15 minutes at room temperature (RT) in assay buffer containing 50 mM HEPES pH 7.5, 50 mM KCl, 50 mM MgCl2, 0.01% Tween 20 and 10 mM DTT. The reaction is initiated by the addition of the combined substrates ATP and Methionine, each at a final concentration of 100 μM. Final assay condition are 12.5 nM Mat2A, 100 μM ATP and Methionine Substrates and 2% DMSO. After 120 minutes of incubation at RT, the reaction is stopped by the addition of Biomol Green. The absorbance signal is measured at λ=635 nm with a multiplate reader (BMG Pherastar reader or equivalent) after 30 min of equilibration at RT.

The term IC50 denotes the point on the concentration scale where inhibition reaches its midpoint. Take `COc1ccccc1C(=O)n1nc(N)c2ccc([C@H]3C[C@@H]3C)nc21` (racemic) [Example 34, (3-amino-6-((1RS,2RS)-2-methylcyclopropyl)-1H-pyridin-3-pyrazolo[3,4-b]pyridin-1-yl)(2-methoxyphenyl)methanone]: the concentration for half-maximal inhibition (IC50) came to 29 nM.

Regarding `C[C@H]1C(=O)NCC[C@H]1C(=O)n1nc(N)c2ccc(C3CC3)nc21` (racemic) [Example 59, (3RS,4RS)-4-(3-amino-6-cyclopropylpyrazolo[3,4-b]pyridine-1-carbonyl)-3-methylpiperidin-2-one], the IC50 was 33 nM.

`Cc1nscc1C(=O)n1nc(N)c2ccc(C3CC3)nc21` [Example 79, (3-amino-6-cyclopropyl-1H-pyrazolo[3,4-b]pyridin-1-yl)(3-methylisothiazol-4-yl)methanone]: the concentration for half-maximal inhibition (IC50) came to 150 nM.

Take `Nc1nn(C(=O)c2cccnc2Cl)c2nc(C3CC3)ccc12` [Example 76, (3-amino-6-cyclopropyl-1H-pyrazolo[3,4-b]pyridin-1-yl)(2-chloropyridin-3-yl)methanone]: the IC50 stood at 17 nM.

`Cc1ccccc1C(=O)n1nc(N)c2ccc(C(F)(F)F)nc21` [Example 25, (3-amino-6-(trifluoromethyl)-1H-pyrazolo[3,4-b]pyridin-1-yl)(o-tolyl)methanone]: the IC50 is 290 nM.

In the case of `Cc1ccccc1C(=O)n1nc(N)c2ccc(C3=CCCC3)nc21` [Example 30, [3-amino-6-(cyclopenten-1-yl)pyrazolo[3,4-b]pyridin-1-yl]-(2-methylphenyl)methanone], the IC50 was 53 nM.

`COc1ccccc1C(=O)n1nc(N)c2ccc(CC(C)C)nc21` [Example 2, (3-amino-6-isobutyl-1H-pyrazolo[3,4-b]pyridin-1-yl)(2-methoxyphenyl)methanone]: the half-maximal inhibitory concentration (IC50) was determined as 110 nM.

In the case of `Cc1ccccc1C(=O)n1nc(N)c2cnc(N3CCCC3)nc21` [Example 17, (3-amino-6-(pyrrolidin-1-yl)-1H-pyrazolo[3,4-d]pyrimidin-1-yl)(o-tolyl)methanone], the 50% inhibitory concentration (IC50) was 280 nM.

For `COc1ccccc1C(=O)n1nc(N)c2cc3c(nc21)CC(C)CC3` (stereo not shown) [Example 38, (3-amino-7-methyl-5,6,7,8-tetrahydro-1H-pyrazolo[3,4-b]quinolin-1-yl)(2-methoxyphenyl)methanone], the 50% inhibitory concentration (IC50) worked out at 120 nM.

For `COc1ccccc1C(=O)n1nc(N)c2ccc(N3CC(F)(F)C3)nc21` [Example 27, (3-amino-6-(3,3-difluoroazetidin-1-yl)-1H-pyrazolo[3,4-b]pyridin-1-yl)(2-methoxyphenyl)methanone], the IC50 stood at 69 nM.

Turning to `COc1ccccc1C(=O)n1nc(N)c2cc3c(nc21)CC(C)(C)CC3` [Example 21, (3-amino-7,7-dimethyl-5,6,7,8-tetrahydro-1H-pyrazolo[3,4-b]quinolin-1-yl)(2-methoxyphenyl)methanone], the IC50 amounted to 140 nM.

On to `Cc1ccccc1C(=O)n1nc(N)c2ccc(N3CC(F)(F)C3)nc21` [Example 28, (3-amino-6-(3,3-difluoroazetidin-1-yl)-1H-pyrazolo[3,4-b]pyridin-1-yl)(o-tolyl)methanone], for which the IC50 came to 340 nM.

With `COc1cc(F)ccc1C(=O)n1nc(N)c2ccc(C3CC3)nc21` [Example 58, (3-amino-6-cyclopropyl-1H-pyrazolo[3,4-b]pyridin-1-yl)(4-fluoro-2-methoxyphenyl)methanone], the IC50 turned out to be 300 nM.

Regarding `COc1c(F)cccc1C(=O)n1nc(N)c2cc(F)c(N3CCCC3)nc21` [Example 46, (3-amino-5-fluoro-6-(pyrrolidin-1-yl)-1H-pyrazolo[3,4-b]pyridin-1-yl)(3-fluoro-2-methoxyphenyl)methanone], the concentration for half-maximal inhibition (IC50) was determined as 55 nM.

For the compound `Cc1ccccc1C(=O)n1nc(N)c2ccc(C3CC3(F)F)nc21` (stereo not shown) [Example 41, (3-amino-6-(2,2-difluorocyclopropyl)-1H-pyrazolo[3,4-b]pyridin-1-yl)(o-tolyl)methanone], the IC50 amounted to 150 nM.

With `Cc1cccc(C(=O)n2nc(N)c3ccc(C4CC4)nc32)c1C` [Example 55, (3-amino-6-cyclopropyl-1H-pyrazolo[3,4-b]pyridin-1-yl)(2,3-dimethylphenyl)methanone], the concentration for half-maximal inhibition (IC50) was determined as 320 nM.

As to `COc1ccccc1C(=O)n1nc(N)c2cc(F)c(N3CC(F)(F)C3)nc21` [Example 14, (3-amino-6-(3,3-difluoroazetidin-1-yl)-5-fluoro-1H-pyrazolo[3,4-b]pyridin-1-yl)(2-methoxyphenyl)methanone], the IC50 is 95 nM.

In the case of `Cc1ncsc1C(=O)n1nc(N)c2ccc(C3CC3)nc21` [Example 63, (3-amino-6-cyclopropyl-1H-pyrazolo[3,4-b]pyridin-1-yl)(4-methylthiazol-5-yl)methanone], the IC50 came to 130 nM.

As to `COc1c(C)cccc1C(=O)n1nc(N)c2ccc(C3CC3)nc21` [Example 70, (3-amino-6-cyclopropyl-1H-pyrazolo[3,4-b]pyridin-1-yl)(2-methoxy-3-methylphenyl)methanone], the half-maximal inhibitory concentration (IC50) worked out at 180 nM.

For the compound `COc1ccccc1C(=O)n1nc(N)c2ccc(C3CCC3)nc21` [Example 32], the concentration for half-maximal inhibition (IC50) turned out to be 59 nM.

Regarding `Cc1c(F)cccc1C(=O)n1nc(N)c2ccc(C3CC3)nc21` [Example 54, (3-amino-6-cyclopropyl-1H-pyrazolo[3,4-b]pyridin-1-yl)(3-fluoro-2-methylphenyl)methanone], the half-maximal inhibitory concentration (IC50) was 210 nM.

Regarding `COc1c(Cl)cccc1C(=O)n1nc(N)c2ccc(C3CC3)nc21` [Example 71, (3-amino-6-cyclopropyl-1H-pyrazolo[3,4-b]pyridin-1-yl)(3-chloro-2-methoxyphenyl)methanone], the IC50 was 480 nM.

As to `Cc1ncccc1C(=O)n1nc(N)c2ccc(C3CC3(F)F)nc21` (stereo not shown) [Example 49, (3-amino-6-(2,2-difluorocyclopropyl)-1H-pyrazolo[3,4-b]pyridin-1-yl)(2-methylpyridin-3-yl)methanone], the IC50 was 22 nM.

With `Nc1nn(C(=O)c2ccccc2OC(F)F)c2nc(C3CC3)ccc12` [Example 61, (3-amino-6-cyclopropyl-1H-pyrazolo[3,4-b]pyridin-1-yl)(2-(difluoromethoxy)phenyl)methanone], the half-maximal inhibitory concentration (IC50) was 130 nM.

As for `COc1ccccc1C(=O)n1nc(N)c2ccc(C3CC3(F)F)nc21` (stereo not shown) [Example 40, (3-amino-6-(2,2-difluorocyclopropyl)-1H-pyrazolo[3,4-b]pyridin-1-yl)(2-methoxyphenyl)methanone], the IC50 stood at 32 nM.

As to `COc1ccccc1C(=O)n1nc(N)c2cc(F)c(-c3ccccc3)nc21` [Example 10, (3-amino-5-fluoro-6-phenyl-1H-pyrazolo[3,4-b]pyridin-1-yl)(2-methoxyphenyl)methanone], the IC50 was 280 nM.

Turning to `COc1ccccc1C(=O)n1nc(N)c2ccc(C3=CCCCC3)nc21` [Example 6, [3-amino-6-(cyclohexen-1-yl)pyrazolo[3,4-b]pyridin-1-yl]-(2-methoxyphenyl)methanone], the IC50 amounted to 110 nM.

For the compound `Cc1ccccc1C(=O)n1nc(N)c2cc(F)c(N3CCCC3)nc21` [Example 13, (3-amino-5-fluoro-6-(pyrrolidin-1-yl)-1H-pyrazolo[3,4-b]pyridin-1-yl)(o-tolyl)methanone], the IC50 turned out to be 110 nM.

Consider `C[C@H]1OCC[C@H]1C(=O)n1nc(N)c2ccc(C3CC3)nc21` (racemic) [Example 65, (3-amino-6-cyclopropyl-1H-pyrazolo[3,4-b]pyridin-1-yl)((2SR,3RS)-2-methyltetrahydrofuran-3-methyloxolane-2-yl)methanone], for which the IC50 turned out to be 36 nM.

Turning to `Cc1nnccc1C(=O)n1nc(N)c2ccc(C3CC3)nc21` [Example 78, (3-amino-6-cyclopropyl-1H-pyrazolo[3,4-b]pyridin-1-yl)(3-methylpyridazin-4-yl)methanone], the 50% inhibitory concentration (IC50) came to 200 nM.

As to `Cc1ccccc1C(=O)n1nc(N)c2ccc(C3CC3)nc21` [Example 20, (3-amino-6-cyclopropylpyrazolo[3,4-b]pyridin-1-yl)-(2-methylphenyl)methanone], the half-maximal inhibitory concentration (IC50) amounted to 160 nM.

On to `COc1ccccc1C(=O)n1nc(N)c2cc(Cl)c(C3CC3)nc21` [Example 8, (3-amino-5-chloro-6-cyclopropyl-1H-pyrazolo[3,4-b]pyridin-1-yl)(2-methoxyphenyl)methanone], for which the half-inhibitory concentration (IC50) was 56 nM.

For `COc1ncccc1C(=O)n1nc(N)c2ccc(C3CC3)nc21` [Example 75, (3-amino-6-cyclopropyl-1H-pyrazolo[3,4-b]pyridin-1-yl)(2-methoxypyridin-3-yl)methanone], the half-maximal inhibitory concentration (IC50) is 26 nM.

For the compound `Nc1nn(C(=O)C2CCCOC2)c2nc(C3CC3)ccc12` (stereo not shown) [Example 73, (3-amino-6-cyclopropyl-1H-cyclopropyl-1H-pyrazolo[3,4-b]pyridin-1-yl)(tetrahydro-2H-pyran-3-yl)methanone], the IC50 turned out to be 180 nM.

Take `COc1ccccc1C(=O)n1nc(N)c2ccc(-c3ccccc3)nc21` [Example 1, (3-amino-6-phenyl-1H-pyrazolo[3,4-b]pyridin-1-yl)(2-methoxyphenyl)methanone]: the IC50 came out at 92 nM.

As for `Nc1nn(C(=O)C2CCNC(=O)C2)c2nc(C3CC3)ccc12` (stereo not shown) [Example 69, 4-(3-amino-6-cyclopropyl-1H-pyrazolo[3,4-b]pyridine-1-carbonyl)piperidin-2-one], the IC50 worked out at 79 nM.

`COc1ccccc1C(=O)n1nc(N)c2ccc(N3CCCC3)nc21` [Example 3, (3-amino-6-(pyrrolidin-1-yl)-1H-pyrazolo[3,4-b]pyridin-1-yl)(2-methoxyphenyl)methanone]: the IC50 stood at 53 nM.
